Measured values: patent publication US20220389477A1, “METHOD FOR EVALUATING ANTIBIOTIC SUSCEPTIBILITY” (Vrije Universiteit Brussel, priority 2019, published 2022)
Values after ≈ are worked out from the molar mass of the structure shown. Like-named read-outs stand apart in the source and are kept apart here.

Experiments:
[1] = tested on: Escherichia coli culture; assay: Optical third-derivative MIC method, culture in broth; format: cell-based; details: EC/03D177; for MIC: Escherichia coli
Source text: The method of FIG. 1 starts at a time equal to zero, t0 (1). Preferably, said t0 is the moment a pure bacteria culture is finished being prepared. Alternatively, said t0 is the moment all wells contain both said bacteria culture and said antimicrobial drug. After the starting of the experiment each well is periodically illuminated with a light source and the intensity of the transmitted light is detected with a photodetector (2). Preferably, each well is illuminated and the intensity of the transmitted light is detected every hour (2). More preferably, each well is illuminated and the intensity of the transmitted light is detected every 5 to 15 min. After a predetermined time length, preferably after 4 hours, a first, a second and a third derivative of said measured intensity is calculated (3) in a first and a second time frame for each well. Preferably, said second time frame is the last measured time frame after the test has been running for said predetermined time length, and said first time frame is the time frame preceding the second time frame. More preferably, said first time frame is between two and three hours and said second time frame is between three and four hours. After the calculation of said derivatives, said first derivative in said second time frame of said reference well is compared to a growth speed threshold value (4). Preferably, said growth speed threshold value is 0.166 (4). If said first derivative in said second time frame of said reference well is larger than or equal to said growth speed threshold value said bacteria culture is classified as Type I (4). If said first derivative in said second time frame of said reference well is smaller than said growth speed threshold value said bacteria culture is classified as Type II (4). Subsequently, independent of the classification of the bacteria culture according to the two types, the method comprises the following steps which are performed for each well or for all wells except said reference well. Both said first and said second time frames are evaluated to see if there is an inflection point present in the second derivative in said first and/or said second time frame (5).
If said first and/or said second time frame comprise said inflection point than said third derivative in said first time frame is compared to said third derivative in said second time frame (6). If said third derivative in said first time frame is larger than said third derivative in said second time frame, then said first time frame and said second time frame are selected as a first and second time frame to be used in a minimal inhibitory concentration determination method (10). If said third derivative in said first time frame is not larger than said third derivative in said second time frame, then said well is illuminated again after a certain time period, preferably an hour, more preferably 5 to 15 min after said predetermined time length said, with a light source and the intensity of the transmitted light is detected with a photodetector forming a new time frame subsequent to said second time frame (7). A third derivative, and possibly also a first and/or a second derivative, is calculated in said new time frame (7). Further, in step (7) a new first time frame is put equal to said second time frame and a new second time frame to equal to said new time frame. Subsequently, said third derivative in said new first time frame is compared to said third derivative in said new second time frame (8). If said derivative in said new first time frame is larger than said third derivative in said new second time frame, then said new first time frame and said new second time frame are selected as a first and second time frame to be used in a minimal inhibitory concentration determination method (10). […]

[2] = tested on: Escherichia coli culture; assay: E-test; format: cell-based; details: culture EC/03D177
[3] = tested on: Escherichia coli culture; assay: Broth microdilution (BMD); format: cell-based; details: culture EC/03D177
[4] = tested on: E-coli; details: tabulated, known value, cited from earlier work

CC1(C)S[C@@H]2[C@H](NC(=O)[C@H](N)c3ccccc3)C(=O)N2[C@H]1C(=O)O [ampicillin]
heteroresistance determined by the method ([1]; FIG. 5D, overall conclusion): not heteroresistant | HR? at MIC (25%) ([1]; ratio MIC T2/T1): yes (If the ratio of the MIC value in the second time frame over the MIC value in the first time frame is higher than or equal to 8 then the ratio is labelled to be heteroresistant) | HR? at MIC (40%) ([1]; ratio MIC T2/T1): no (If the ratio of the MIC value in the second time frame over the MIC value in the first time frame is lower than or equal to 4 then the ratio is labelled not to be heteroresistant) | HR? at MIC (60%) ([1]; ratio MIC T2/T1): no (If the ratio of the MIC value in the second time frame over the MIC value in the first time frame is lower than or equal to 4 then the ratio is labelled not to be heteroresistant) | HR? at MIC (75%) ([1]; ratio MIC T2/T1): no (If the ratio of the MIC value in the second time frame over the MIC value in the first time frame is lower than or equal to 4 then the ratio is labelled not to be heteroresistant) | MIC ([1]; 3 h-4 h, read-out: MIC (25%) T1): 2 µg/mL (≈ 5.72 µM) | MIC ([1]; 3 h-4 h, read-out: MIC (40%) T1): 2 µg/mL (≈ 5.72 µM) | MIC ([1]; 3 h-4 h, read-out: MIC (60%) T1): 2 µg/mL (≈ 5.72 µM) | MIC ([1]; 3 h-4 h, read-out: MIC (75%) T1): 2 µg/mL (≈ 5.72 µM) | MIC ([1]; 4 h-5 h, read-out: MIC (25%) T2): 8 µg/mL (≈ 22.9 µM) | MIC ([1]; 4 h-5 h, read-out: MIC (40%) T2): 2 µg/mL (≈ 5.72 µM) | MIC ([1]; 4 h-5 h, read-out: MIC (60%) T2): 2 µg/mL (≈ 5.72 µM) | MIC ([1]; 4 h-5 h, read-out: MIC (75%) T2): 2 µg/mL (≈ 5.72 µM) | MIC ([1]; FIG. 5D, overall conclusion, read-out: MIC value determined by the method): 2 µg/mL (≈ 5.72 µM) | MIC ([2]; Escherichia coli): 2 µg/mL (≈ 5.72 µM) | HR? (E-test) [2]: no | MIC [3]: 4 µg/mL (≈ 11.4 µM) | MIC for Ampiciline ([4]; Colony ID. 03D161): 4 µg/mL | MIC for Ampiciline ([4]; Colony ID. 03D177): 2 µg/mL | MIC for Ampiciline ([4]; Colony ID. 03D179): > 32 µg/mL
